Measured values reported in patent US20240199676A1, “ANTIVIRAL COMPOUNDS AND METHODS OF MAKING AND USING THE SAME” (Gilead Sciences, Inc., priority 2022, published 2024).

system: Respiratory syncytial virus recombinant with luciferase (RSV-Luc5) in NHBE cells; test: NHBE RSV-Luc5 384-well Assay (RSV FLUC NHBE 384 V2, Ex. W); type: cell-based; conditions: human respiratory syncytial virus, 72 h, read-out: EC50 RSV FLUC NHBE 384 V2 (per Ex. W)
Text: Example W: NHBE RSV-Luc5 384-well Assay (EC50 RSVFLUC NHBE-384)
Normal Human Bronchial Epithelial (NHBE) cells were purchased from Lonza (Walkersville, MD Cat #CC2540) and maintained in BEGM Bronchial Epithelial Cell Growth Medium BulletKit (Lonza CC-3170).
Cells were thawed, expanded, and were used for experiments at passage 2. Respiratory syncytial virus recombinant with luciferase (RSV-Luc5) (≥1×10^7 Infectious Units/mL (IU/mL) determined by TCID50) was purchased from Microbiologics (Saint Cloud, MN). Viral replication was determined in NHBE cells in the following manner.
Compounds are prepared in 100% DMSO in 384-well polypropylene plates (Greiner, Monroe, NC, Cat #784201) with 8 compounds per plate in grouped replicates of 4 at 10 serially diluted concentrations (1:3). The serially diluted compounds were transferred to low dead volume Echo plates (Labcyte, Sunnyvale, CA, Cat #LP-0200).
The test compounds were spotted to 384-well assay plates (Greiner, Monroe, NC, Cat#781091) at 200 nL per well using an Echo acoustic dispenser (Labcyte, Sunnyvale, CA). NHBE cells were harvested and suspended in BEGM Bronchial Epithelial Cell Growth Medium BulletKit and seeded to the pre-spotted assay plates at 5,000 cells per well in 30 μL. RSV-Luc5 virus was diluted in BEGM Bronchial Epithelial Cell Growth Medium BulletKit at 500,000 Infectious Units (IU) per mL and 10 μL per well was added to the assay plates containing cells and compounds, for an MOI of 1. The assay plates were incubated for 3 days at 37° C. and 5% CO2. At the end of incubation, One-Glo reagent (Promega, Madison, WI, Cat #E6120) was prepared. The assay plates and One-Glo reagent were equilibrated to room temperature for at least 15 minutes. 40 μL per well of One-Glo reagent was added and the plates were incubated at room temperature for 15 minutes before reading the luminescence signal on an EnVision multimode plate reader (Perkin Elmer, Waltham, MA). Remdesivir was used as positive control and DMSO was used as negative control. Values were normalized to the positive and negative controls (as 0% and 100% replication, respectively) and data was fitted using non-linear regression analysis by Gilead's dose response tool. The EC50 value for each compound was defined as the concentration reducing the viral replication by 50%.

Which EC50 does the source give for CC(C)C(=O)O[C@H]1[C@H](c2ccc3c(N)ncnn23)O[C@](C#N)(COC(=O)c2ccccc2)[C@H]1O [Compound 22, ((2R,3S,4R,5S)-5-(4-aminopyrrolo[2,1-f][1,2,4]triazin-7-yl)-2-cyano-3-hydroxy-4-(isobutyryloxy)tetrahydrofuran-2-yl)methyl benzoate] here?
Its EC50 is 11.3 µM.

With CC[C@@H](C)C(=O)OC[C@@]1(C#N)O[C@@H](c2ccc3c(N)ncnn23)[C@H](O)[C@@H]1O [Compound 37, ((2R,3S,4R,5S)-5-(4-aminopyrrolo[2,1-f][1,2,4]triazin-7-yl)-2-cyano-3,4-dihydroxytetrahydrofuran-2-yl)methyl (R)-2-methylbutanoate] as the compound, how does the EC50 read?
The EC50 was 9.93 µM.

For [H]/N=c1/c2ccc([C@@H]3O[C@](C#N)(CO)[C@@H](O)[C@H]3O)n2ncn1COC(=O)C(C)C [Compound 34, (7-((2S,3R,4S,5R)-5-cyano-3,4-dihydroxy-5-(hydroxymethyl)tetrahydrofuran-2-yl)-4-iminopyrrolo[2,1-f][1,2,4]triazin-3(4H)-yl)methyl isobutyrate], which EC50 is on record?
The EC50 was 39.1 µM.

For CC(C)(CF)C(=O)OC[C@@]1(C#N)O[C@@H](c2ccc3c(N)ncnn23)[C@H](O)[C@@H]1O [Compound 29, ((2R,3S,4R,5S)-5-(4-aminopyrrolo[2,1-f][1,2,4]triazin-7-yl)-2-cyano-3,4-dihydroxytetrahydrofuran-2-yl)methyl 3-fluoro-2,2-dimethylpropanoate], which EC50 is on record?
The EC50 was 13 µM.

With CC(C)(C)CC(=O)Nc1ncnn2c([C@@H]3O[C@](C#N)(COC(=O)CC(C)(C)C)[C@@H](O)[C@H]3O)ccc12 [Compound 26, ((2R,3S,4R,5S)-2-cyano-5-(4-(3,3-dimethylbutanamido)pyrrolo[2,1-f][1,2,4]triazin-7-yl)-3,4-dihydroxytetrahydrofuran-2-yl)methyl 3,3-dimethylbutanoate] as the compound, how does the EC50 read?
The EC50 was 26.6 µM.

With CC1(C(=O)OC[C@@]2(C#N)O[C@@H](c3ccc4c(N)ncnn34)[C@H](O)[C@@H]2O)CCC1 [Compound 24, ((2R,3S,4R,5S)-5-(4-aminopyrrolo[2,1-f][1,2,4]triazin-7-yl)-2-cyano-3,4-dihydroxytetrahydrofuran-2-yl)methyl 1-methylcyclobutane-1-carboxylate] as the compound, how does the EC50 read?
The EC50 was 10.8 µM.

CCC(C)(C)CC(=O)OC[C@@]1(C#N)O[C@@H](c2ccc3c(N)ncnn23)[C@H](O)[C@@H]1O [Compound 27, ((2R,3S,4R,5S)-5-(4-aminopyrrolo[2,1-f][1,2,4]triazin-7-yl)-2-cyano-3,4-dihydroxytetrahydrofuran-2-yl)methyl 3,3-dimethylpentanoate] was tested. Which EC50 did it give?
Its EC50 is 12.2 µM.

How did the EC50 turn out when CC(=O)OC[C@@]1(C#N)O[C@@H](c2ccc3c(NC(=O)C(C)C)ncnn23)[C@H](O)[C@@H]1O [Compound 23, ((2R,3S,4R,5S)-2-cyano-3,4-dihydroxy-5-(4-isobutyramidopyrrolo[2,1-f][1,2,4]triazin-7-yl)tetrahydrofuran-2-yl)methyl acetate] was run?
Its EC50 is 14.9 µM.
